# Values joined by “and” are separate entries in the source; they are usually repeats but may differ in a detail not shown here. Identical values can stand only once.
# Legend:
# [1] = system: children with hypochondroplasia; experiment: Phase 2 open-label trial: height efficacy outcomes (annualized growth velocity, height SDS); format: in vivo, human; conditions: for Annualized growth velocity, treatment period / Annualized growth velocity SDS, treatment period: SD
# Description: The study consists of a 6-month observation period to establish a baseline annualized growth velocity followed by a 12-month intervention period during which vosoritide is administered daily via subcutaneous injection at a dose of 15 μg/kg/day, the same dose as used in the Phase 3 trial of children with achondroplasia.[7] […] Details of the protocol can be found in the Supplementary Materials.
# The study has 3 prespecified co-primary outcomes: 1. To evaluate the safety and tolerability of daily subcutaneous injections of vosoritide administered for 12 months in patients with selected genetic causes of short stature, 2. To evaluate the change from baseline in age-sex standardized annualized growth velocity after 12 months of daily SC injections of vosoritide in patients with selected genetic causes of short stature, and 3. To evaluate the change from baseline in age-sex standardized height SDS after 12 months of daily SC injections of vosoritide in patients with selected genetic causes of short stature. Annualized growth velocity was standardized using data from the First Zurich Longitudinal Study of Growth and Development[9] as it includes growth velocity data starting at age 2.5 years. Height SDS was calculated using the United States CDC growth charts.[8] Hypochondroplasia specific height SDS was calculated using recently published hypochondroplasia growth curves.[10] To measure these outcomes, the following 3 co-primary endpoints were specified: 1. The incidence of adverse events per participant, 2. The change from baseline in age-sex standardized annualized growth velocity after 12 months of treatment, and 3. The change from baseline in age-sex standardized height SDS after 12 months of treatment. Height was measured five times at each study visit on a wall-mounted calibrated Harpenden stadiometer. The average of all five values was used. Safety assessments included routine laboratory evaluations at each visit, baseline and Month 12 echocardiograms, electrocardiograms at each visit, vital signs measurements, and spine X-rays at Day 1 and Month 12.
# (§1) No formal power calculations were done for this proof of principle study. Sample size was determined based on logistical feasibility. Medication adherence was calculated using the number of returned empty vials divided by the number of days of prescribed therapy. Demographics and clinical characteristics were summarized with mean and standard deviation (SD), median and interquartile (IQR) for numerical variables, frequency and proportion for categorical variables. Primary and secondary clinical outcomes were summarized with mean (SD) for the 6-month observation period and the 12-month treatment period. Paired t-tests were carried out to compare the difference between the treatment and observation periods. The corresponding p-value and 95% confidence interval (CI) were reported. Box and whisker plots were used for both primary endpoints (annualized growth velocity and height SDS) and exploratory endpoints (CXM and cGMP) to visualize the trends for the change from baseline to each of the follow-up visits. Safety data (AEs) were summarized as count and percentage of patients as well as the number of total occurrences per each listed AE for the observation period and the treatment period, respectively. As exploratory analyses, the primary endpoints were stratified based on age, baseline growth velocity and baseline height SDS. The summaries of mean (SD) for each visit, mean differences between treatment and observation periods, and the corresponding p-value and 95% CI were all reported. Parent reported quality of life using the QoLISSY scale was also reported with a similar tabular format. Data were analyzed using SAS for Windows version 9.4 (SAS Institute Inc., Cary, NC). A two-sided test with a significance level of 0.05 was used for all hypothesis tests.
# [2] = system: collagen X biomarker (CXM); experiment: Serum collagen X biomarker (CXM) by ELISA; format: in vivo, human
# Description: (§2) Secondary outcomes included the change in body proportions as measured by sitting height to standing height ratio and arm span minus standing height, as well as the change in bone age to chronological age ratio after 12 months of therapy. Sitting height was measured three times at each visit using a sitting height table. The average of the three values was used. Sitting height to standing height ratio and arm span minus standing height were standardized for age and sex using available reference data and SDS were calculated.[11]^,[12] Bone age X-rays were read by a single reviewer who was blinded to participant ID, age and time point. Exploratory endpoints included pharmacokinetic parameters, pharmacodynamic markers including collagen X biomarker (CXM) levels and urine cGMP production, and changes in quality of life as measured by the QoLISSY scale.[13] CXM levels in serum were measured in duplicate via an ELISA assay at the Shriners Hospitals for Children in Portland, Oregon as previously described.[14] The average of the two values was used for analysis. Urine samples were obtained for cGMP measurement at baseline and 60, 120, and 240 min after vosoritide injections at the Day 1, Month 6 and Month 12 visits. cGMP levels were assayed at ICON Laboratories (Farmingdale, NY) and were normalized to urine creatinine levels at each time point.
# [3] = system: children with hypochondroplasia; experiment: Parent-reported quality of life, QoLISSY scale; format: in vivo, human
# Description: as §2, §1
# [4] = system: rat chondrosarcoma cells transfected with FGFR3 containing the hypochondroplasia mutation; conditions: addition of vosoritide; similar to achondroplasia mutation; n=3; ref unpublished BioMarin data; cited from earlier work
# Text: The rationale for using vosoritide in hypochondroplasia is primarily an extension of the positive clinical trial results in patients with achondroplasia, a more severe perturbation of the same gen ...
# [5] = system: neutral endopeptidase (NEP); conditions: conveyed by Pro-Gly addition on the N-terminus; protocol statement, no data shown; cited from earlier work
# Text: Third, Dr. Dauber (the PI) will p ...
sequence,measurement,setting,value
"PGQEHPNARKYKGANKKGLSKGCFGLKLDRIGSMSGLGC (disulfide) [vosoritide, recombinant 39-amino-acid C-type natriuretic peptide analog expressed in E. coli, cyclic by an intramolecular disulfide bond]","Annualized growth velocity, treatment period","[1]; 15 μg/kg/day SC daily, 12-month treatment period, n=24, mean (SD), 6-month observation period 5.12 (1.36)",6.93 (0.93) cm/year
same,"Standing height SDS, change during treatment period","[1]; CDC growth charts, Day 1 to Month 12, n=24, mean (95% CI), change in observation period 0.01 (−0.06, 0.08)","0.37 (0.27, 0.47) SD"
same,"Hypochondroplasia specific standing height SDS, change during treatment period","[1]; Day 1 to Month 12, n=24, mean (95% CI), change in observation period 0.03 (−0.12, 0.19)","0.41 (0.32, 0.50) SD"
same,"Annualized growth velocity SDS, treatment period","[1]; age-sex standardized (First Zurich Longitudinal Study), 15 μg/kg/day SC, 12-month treatment, n=24, mean (SD), observation period −1.14 (1.29)",1.12 (1.05) cm/year
same,"Annualized growth velocity, Month 6 versus Month 12 visit","[1]; n=24, on treatment",no significant difference
same,"Increase in annualized growth velocity, single participant with treatment interruption","[1]; person, vosoritide suspended for 40 days for immune thrombocytopenia",2.4 cm/year
same,"Annualized growth velocity, treatment period","[1]; subgroup Age 3 to <5 Year (N=10), 12-month treatment, 15 μg/kg/day SC, mean (SD), observation 5.97 (1.38)",7.32 (0.79) cm/yr
same,"Annualized growth velocity SDS, treatment period","[1]; subgroup Age 3 to <5 Year (N=10), mean (SD), observation -0.82 (1.12)",1.23 (1.01) cm/yr
same,"Annualized growth velocity, treatment period","[1]; subgroup Age 5 to <9 Year (N=11), mean (SD), observation 4.27 (0.75)",6.91 (0.80) cm/yr
same,"Annualized growth velocity SDS, treatment period","[1]; subgroup Age 5 to <9 Year (N=11), mean (SD), observation -1.93 (0.81)",1.29 (1.13) cm/yr
same,"Annualized growth velocity SDS, treatment period","[1]; subgroup Age 9 to <11 Year (N=3), mean (SD), observation 0.71 (1.12)",0.16 (0.38) cm/yr
same,"Annualized growth velocity, treatment period","[1]; subgroup Age 9 to <11 Year (N=3), mean (SD), observation 5.37 (1.53)",5.71 (0.98) cm/yr
same,"Annualized growth velocity, treatment period","[1]; subgroup GV baseline <=5.0 (N=14), mean (SD), observation 4.17 (0.59)",6.91 (1.01) cm/yr
same,"Annualized growth velocity, treatment period","[1]; subgroup GV baseline > 5.0 (N=10), mean (SD), observation 6.45 (0.94)",6.96 (0.85) cm/yr
same,"Annualized growth velocity, treatment period","[1]; subgroup Height SDS baseline -3.5 to <=-3.0 (N=9), mean (SD), observation 5.17 (0.89)",6.88 (0.84) cm/yr
same,"Annualized growth velocity, treatment period","[1]; subgroup Height SDS baseline <=-3.5 (N=7), mean (SD), observation 4.67 (1.11)",6.64 (1.14) cm/yr
same,"Annualized growth velocity, treatment period","[1]; subgroup Height SDS baseline >-3.0 (N=8), mean (SD), observation 5.46 (1.95)",7.24 (0.86) cm/yr
same,"Change in annualized growth velocity (SDS), single participants without the Asn540Lys variant in FGFR3","[1]; two participants (Gly342Cys, Ser351Phe per Table 1), one value each, cohort mean 2.26 SD",2.5 SD and 2.4 SD
same,"CXM levels, Month 6 versus Month 12 visit","[2]; n=24, on treatment",no significant differences
same,"CXM, Month 12","[2]; serum, ELISA in duplicate, 15 μg/kg/day SC, mean (SD), Day 1 22.48 (6.49), SD",41.62 (15.86) ng/ml
same,Overall or domain specific parental-reported quality of life (QoLISSY),[3]; 12 months of treatment,no significant changes
same,"QoLISSY Coping, change during treatment period","[3]; mean, 95% CI (-7.29, 3.75), p=0.51",-1.77
same,"QoLISSY Belief, change during treatment period","[3]; mean, 95% CI (-9.30, 10.39), p=0.91",0.54
same,"QoLISSY Physical, change during treatment period","[3]; mean, 95% CI (-10.25, 7.47), p=0.75",-1.39
same,"QoLISSY Total (Social, Emotional, Coping), change during treatment period","[3]; mean, 95% CI (-10.55, 4.09), p=0.37",-3.23
same,"QoLISSY Emotional, change during treatment period","[3]; mean, 95% CI (-12.12, 3.01), p=0.23",-4.56
same,"QoLISSY Social, change during treatment period","[3]; mean, 95% CI (-12.43, 4.96), p=0.38",-3.74
same,"QoLISSY Total (Social, Emotional, Coping), Month 6","[3]; parent-reported, mean, SD (16.08), Day 1 60.33 (18.99)",61.73
same,"QoLISSY Treatment, Month 12","[3]; parent-reported, mean, SD (16.43)",38.23
same,"QoLISSY Total (Social, Emotional, Coping), Month 12","[3]; parent-reported, mean, SD (17.99)",57.10
same,"QoLISSY Treatment, Month 6","[3]; parent-reported, mean, SD (18.36)",37.86
same,"QoLISSY Emotional, Month 12","[3]; parent-reported, mean, SD (18.44)",62.37
same,"QoLISSY Coping, Month 12","[3]; parent-reported, mean, SD (18.71)",35.79
same,"QoLISSY Physical, Month 6","[3]; parent-reported, mean, SD (18.77), Day 1 52.60 (18.22)",55.38
same,"QoLISSY Social, Month 6","[3]; parent-reported, mean, SD (19.50), Day 1 61.46 (21.05)",61.20
same,"QoLISSY Physical, Month 12","[3]; parent-reported, mean, SD (20.09)",51.22
same,"QoLISSY Emotional, Month 6","[3]; parent-reported, mean, SD (20.12), Day 1 66.93 (22.25)",68.62
same,"QoLISSY Social, Month 12","[3]; parent-reported, mean, SD (20.40)",57.72
same,"QoLISSY Coping, Month 6","[3]; parent-reported, mean, SD (20.45), Day 1 38.14 (19.61)",35.61
same,"QoLISSY Belief, Month 12","[3]; parent-reported, mean, SD (22.98)",66.93
same,"QoLISSY Belief, Month 6","[3]; parent-reported, mean, SD (29.10), Day 1 65.22 (28.63)",62.23
same,ERK1/2 activation,[4],decrease ERK1/2 activation
same,Degradation by neutral endopeptidase (NEP),[5],resistance to neutral endopeptidase (NEP) degradation

# Source: paper PMC11133798, “Vosoritide treatment for children with hypochondroplasia: a phase 2 trial” (eClinicalMedicine, 2024)
